Results as given in ChEMBL document CHEMBL5331054, “Antibacterial quaternary ammonium agents: Chemical diversity and biological mechanism” (Eur J Med Chem, 2022).
Values belong to the compound of their own block, whether it stands above or below them.

Assays:
[1] = tested on: Staphylococcus aureus; test: Antibacterial activity against methicillin-resistant Staphylococcus aureus assessed as bacterial growth inhibition measured after 16 hrs by microplate reader assay; type: functional
[2] = tested on: Staphylococcus epidermidis; test: Antibacterial activity against methicillin-resistant Staphylococcus epidermidis assessed as bacterial growth inhibition measured after 16 hrs by microplate reader assay; type: functional
[3] = tested on: Enterococcus faecium; test: Antibacterial activity against vancomycin-resistant Enterococcus faecium 700221 assessed as reduction in bacterial growth inhibition measured after 16 hrs by microplate reader assay; type: functional
[4] = tested on: Staphylococcus aureus; test: Antibacterial activity against Staphylococcus aureus assessed as bacterial growth inhibition incubated for 72 hrs by microdilution assay; type: functional, organism-based; details: for MIC: Staphylococcus aureus, time 72 hrs
[5] = tested on: Enterococcus faecalis; test: Antibacterial activity against Enterococcus faecalis assessed as bacterial growth inhibition incubated for 72 hrs by microdilution method; type: functional
[6] = tested on: Escherichia coli; test: Antibacterial activity against Escherichia coli assessed as bacterial growth inhibition incubated for 72 hrs by microdilution method; type: functional
[7] = tested on: Pseudomonas aeruginosa; test: Antibacterial activity against Pseudomonas aeruginosa assessed as bacterial growth inhibition incubated for 72 hrs by microdilution method; type: functional
[8] = tested on: Staphylococcus aureus; test: Antimicrobial activity against Staphylococcus aureus assessed as reduction in bacterial growth; type: functional
[9] = tested on: Enterococcus faecalis; test: Antibacterial activity against Enterococcus faecalis assessed as reduction in bacterial cell growth; type: functional
[10] = tested on: Stenotrophomonas maltophilia; test: Antibacterial activity against Stenotrophomonas maltophilia assessed as inhibition of bacterial growth; type: functional
[11] = tested on: Staphylococcus aureus; test: Antibacterial activity against Staphylococcus aureus CCM 451608 assessed as reduction in bacterial growth inhibition incubated for 24 hrs by microbroth dilution method; type: functional
[12] = tested on: Staphylococcus aureus; test: Antibacterial activity against Staphylococcus aureus CCM 451608 assessed as reduction in bacterial growth inhibition incubated for 48 hrs by microbroth dilution method; type: functional
[13] = tested on: Staphylococcus aureus; test: Antibacterial activity against methicillin-resistant Staphylococcus aureus assessed as bacterial growth inhibition; type: functional
[14] = tested on: Staphylococcus aureus; test: Antibacterial activity against methicillin- resistant Staphylococcus aureus assessed as bacterial growth inhibition incubated for 24 hrs; type: functional
[15] = tested on: Staphylococcus aureus; test: Antibacterial activity against Staphylococcus aureus ATCC 25923 assessed as reduction in bacterial growth incubated for 24 hrs by micro-dilution method; type: functional
[16] = tested on: Escherichia coli; test: Antibacterial activity against Escherichia coli ATCC 25922 assessed as reduction in bacterial growth incubated for 24 hrs by micro-dilution method; type: functional
[17] = tested on: Pseudomonas aeruginosa; test: Antibacterial activity against Pseudomonas aeruginosa ATCC 9027 assessed as reduction in bacterial growth incubated for 24 hrs by micro-dilution method; type: functional
[18] = tested on: Staphylococcus aureus; test: Antibacterial activity against Staphylococcus aureus assessed as bacterial growth inhibition measured after 24 hrs by micro-broth dilution method; type: functional
[19] = tested on: Staphylococcus aureus; test: Antibacterial activity against Staphylococcus aureus ATCC 4163 assessed as reduction in bacterial growth incubated for 24 hrs by micro-dilution method; type: functional
[20] = tested on: Pseudomonas aeruginosa; test: Antibacterial activity against Pseudomonas aeruginosa NCTC 6749 assessed as reduction in bacterial growth incubated for 24 hrs by micro-dilution method; type: functional
[21] = tested on: Vibrio parahaemolyticus; test: Antibacterial activity against Vibrio parahaemolyticus ATCC 17802 assessed as reduction in bacterial growth incubated for 24 hrs by micro-dilution method; type: functional
[22] = tested on: Staphylococcus aureus; test: Antibacterial activity against methicillin-resistant Staphylococcus aureus assessed as log reduction in bacterial load measured after 60 mins; type: functional; details: 1 h
[23] = tested on: Staphylococcus aureus; test: Antibacterial activity against Staphylococcus aureus […] assessed as reduction in bacterial growth inhibition measured after 24 hrs; type: functional
[24] = tested on: Staphylococcus aureus; test: Antibiofilm activity against Staphylococcus aureus assessed as reduction in bacterial growth by crystal violet based staining assay; type: functional
[25] = tested on: Enterococcus faecalis; test: Antibiofilm activity against Enterococcus faecalis assessed as reduction in bacterial growth by crystal violet based staining assay; type: functional
[26] = tested on: Escherichia coli; test: Antibiofilm activity against Escherichia coli assessed as reduction in bacterial growth by crystal violet based staining assay; type: functional
[27] = tested on: Pseudomonas aeruginosa; test: Antibiofilm activity against Pseudomonas aeruginosa assessed as reduction in bacterial growth by crystal violet based staining assay; type: functional
[28] = tested on: Staphylococcus aureus; test: Antibacterial activity against Staphylococcus aureus ATCC 29213 assessed as bacterial growth inhibition incubated for 24 hrs by broth dilution method; type: functional
[29] = tested on: Escherichia coli; test: Antibacterial activity against Escherichia coli assessed as reduction bacterial cell growth; type: functional
[30] = tested on: Pseudomonas aeruginosa; test: Antibacterial activity against Pseudomonas aeruginosa assessed as inhibition of bacterial cell growth; type: functional
[31] = tested on: Staphylococcus aureus; test: Antibacterial activity against Staphylococcus aureus assessed as bacterial growth inhibition; type: functional
[32] = Escherichia coli, 72 h, read-out: MIC
[33] = Pseudomonas aeruginosa, 72 h, read-out: MIC

SMILES: CCCCCCCCCCCCCCCCn1cc[n+](Cc2cccc(F)c2)c1C
- MIC [1]: 1.17 µM
- MIC [2]: 1.17 µM
- MIC [3]: 1.17 µM

SMILES: C[N+](C)(C)CC[N+](C)(C)C
- MIC [4]: > 500 µM
- MIC [5]: > 500 µM
- MIC [6, 32]: > 500 µM
- MIC [7, 33]: > 500 µM

SMILES: CCCCCCCCCCCCCCCC[N+](C)(C)c1ccc(C(c2ccccc2)c2ccc([N+](C)(C)C)cc2)cc1.[I-].[I-] (configuration not stated)
- MIC [13]: < 0.25 µg/mL

SMILES: CCCCCCCCCCCC[N+](C)(C)CCCN(C)C
- MIC [13]: 8 µM
- MIC [14]: 4 µM

SMILES: CCCCCCCCCCC[n+]1cccc(Oc2ccc(Oc3ccc[n+](CCCCCCCCCCC)c3)cc2)c1.[Br-].[Br-]
- MIC [13]: < 0.25 µg/mL

SMILES: CCCCCCCCCC[N+](C)(C)CCOc1ccc(OCC[N+](C)(C)CCCCCCCCCC)cc1.[Br-].[Br-]
- MIC [8]: 0.5 µg/mL
- MIC [9]: 0.25 µg/mL
- MIC [10]: 0.5 µg/mL

SMILES: CC1(C)C(=O)N(CCC[N+](C)(C)CC[N+](C)(C)C)C(=O)N1Cl.[Cl-].[Cl-]
- log(activity) [22]: 2.36

SMILES: CCOC(=O)c1c[n+](C(C)C)c2cc3c(cc2c1Nc1ccc(OCc2ccccc2)cc1)OCO3
- MIC [23]: 3.12 µM

SMILES: CCCCCCCCCCCC[N+](C)(C)CC[N+](C)(C)CC[N+](C)(C)CCCCCCCCCCCC
- MIC [24]: < 0.25 µM
- MIC [25]: < 0.25 µM
- MIC [26]: 0.5 µM
- MIC [27]: 1 µM

SMILES: CCCCCCCCCCCCCCCCCC[N+](CC)(CC)c1ccc(C(c2ccc([N+](C)(CC)CC)cc2)c2ccc([N+](C)(CC)CC)cc2)cc1
- MIC [13]: 0.5 µM
- MIC [8]: 1 µM
- MIC [29]: 1 µM
- MIC [30]: 8 µM
- MIC [9]: 1 µM

SMILES: CCCCCCCCCC[N+](C)(C)CCCCCCCCCC [DIDECYLDIMETHYLAMMONIUM CHLORIDE]
- MIC [13]: 4 µM
- MIC [14]: 1 µM

SMILES: CCCCCCCCCCCC[N+](C)(C)CC[N+](C)(C)CCCCCCCCCCCC
- MIC [4]: 1 µM
- MIC [5]: 1 µM
- MIC [6, 32]: 2 µM
- MIC [7, 33]: 4 µM

Continued, in another order:

- MIC [4]: 1 µM
- MIC [5]: 1 µM
- MIC [6, 32]: 1 µM
- MIC [7, 33]: 4 µM
SMILES: CCCCCCCCCCCC[N+](C)(C)CCCCC[N+](C)(C)CCCCCCCCCCCC

- MIC [8]: 1 µg/mL
- MIC [9]: 1 µg/mL
- MIC [10]: 2 µg/mL
SMILES: CCCCCCCCCCCC[N+](C)(C)CCOc1ccc(OCC[N+](C)(C)CCCCCCCCCCCC)cc1.[Br-].[Br-]

- MIC [11]: 0.98 µM
- MIC [12]: 0.98 µM
SMILES: CCCCCCCCCCCCCCCC[n+]1ccc(C=NO)cc1

- MIC [15]: 0.625 µg/mL
- MIC [16]: 0.625 µg/mL
- MIC [17]: 0.625 µg/mL
SMILES: CC1(C)[C@@H]2CC[C@H](CC[N+](C)(C)CC[C@H]3CC[C@@H]4C[C@H]3C4(C)C)[C@H]1C2.[Cl-]

- MIC [18]: 4 µM
SMILES: O=C(C[n+]1cc(-c2ccc(Cl)c(Cl)c2)n2c1CCC2)Nc1ccc(Oc2ccccc2)cc1

- MIC [16]: 9.4 µM
- MIC [19]: 2.3 µM
- MIC [20]: 2.3 µM
SMILES: CCCCCCCCCCCC[N+](C)(C)CCNC(=O)C12CC3CC(C1)CC(C(=O)NCC[N+](C)(C)CCCCCCCCCCCC)(C3)C2
- MIC [21]: 0.1 µM

- MIC [6]: 20 µM
- MIC [7]: 300 µM
SMILES: CCCCCCCCCCCCOC(=O)C[N+](C)(C)CCC[N+](C)(C)CC(=O)OCCCCCCCCCCCC.[Br-].[Br-]
- IC50 [4]: 20 µM

- MIC [8]: 0.25 µM
SMILES: CCCCCCCCCCCC[N+](C)(C)c1ccc(C(c2ccc(N(C)C)cc2)c2ccc(N(C)C)cc2)cc1

- MIC [28]: 4 µg/mL
SMILES: CCCC1OCc2c(CO)c(C[N+](C)(C/C=C/C#CC(C)(C)C)Cc3cccc4ccccc34)nc(C)c2O1.[Br-] (configuration not stated)

- MIC [31]: 8 µg/mL
SMILES: CCCCCCCCS(=O)(=O)Nc1ccc(-c2ccc(Cl)cc2)cc1C(=O)C(=O)NCCC[N+](C)(C)C.[I-]

- MIC [6]: 200 µM
- MIC [7]: 40 µM
SMILES: CCCCCCCCCCCCOC(=O)C[N+](C)(C)CCC[N+](C)(C)CC(=O)OCCCCCCCCCCCC.[Cl-].[Cl-]
- IC50 [4]: 120 µM
